# What was measured:
# [1] = molecular target: T1, recombinant human liver glycogen phosphorylase (Homo sapiens, UniProt P06737); assay: Measuring liver glycogen phosphorylase activity (forward reaction system, NADPH absorbance at 340 nm); type: biochemical
# T1 construct: made in house; host or cells: Sf9 insect cells (crude homogenate, diluted, used as the enzyme solution)
# T1 sequence (P06737 1-847): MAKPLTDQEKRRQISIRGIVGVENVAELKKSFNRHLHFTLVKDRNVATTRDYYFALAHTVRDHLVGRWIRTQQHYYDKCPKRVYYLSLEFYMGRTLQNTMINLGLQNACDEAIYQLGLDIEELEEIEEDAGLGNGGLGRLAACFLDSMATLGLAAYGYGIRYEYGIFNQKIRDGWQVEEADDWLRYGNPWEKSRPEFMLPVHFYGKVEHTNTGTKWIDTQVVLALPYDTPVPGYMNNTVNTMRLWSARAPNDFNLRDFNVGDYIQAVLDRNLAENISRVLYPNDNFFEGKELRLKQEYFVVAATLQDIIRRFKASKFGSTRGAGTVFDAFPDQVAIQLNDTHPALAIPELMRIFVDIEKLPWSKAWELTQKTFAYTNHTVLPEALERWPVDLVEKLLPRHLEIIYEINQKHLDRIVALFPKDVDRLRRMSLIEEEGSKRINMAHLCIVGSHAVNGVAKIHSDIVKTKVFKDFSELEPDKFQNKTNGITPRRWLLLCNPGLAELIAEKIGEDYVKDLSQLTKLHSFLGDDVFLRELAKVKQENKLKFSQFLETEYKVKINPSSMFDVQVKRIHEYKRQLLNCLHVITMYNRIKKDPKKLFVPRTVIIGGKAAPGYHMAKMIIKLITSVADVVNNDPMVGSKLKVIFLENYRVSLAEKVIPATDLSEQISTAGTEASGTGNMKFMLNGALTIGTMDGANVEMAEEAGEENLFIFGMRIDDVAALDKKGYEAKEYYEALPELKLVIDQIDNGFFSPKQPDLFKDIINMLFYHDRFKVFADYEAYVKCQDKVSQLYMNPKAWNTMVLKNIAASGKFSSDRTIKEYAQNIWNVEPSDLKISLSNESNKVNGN
# Procedure, shortened: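 Compounds in 1% DMSO; activity taken as blank-subtracted 340 nm absorbance change across 75 min at room temperature. Forward reaction: glucose-1-phosphate released from glycogen converted by coupling enzymes, yielding NADPH; enzyme from recombinant Sf9 homogenate, reaction containing glucose, pH 6.8. IC50 from two-point linear interpolation.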
# [2] = system: db/db mice; assay: Measuring blood plasma glucose concentration in db/db mice (hypoglycemic effect); type: in vivo; parameters: key: ++: compounds exhibiting statistically significant hypoglycemic effect at a dose of 10 mg/kg or less; +: compounds exhibiting not significant but obvious hypoglycemic effect at a dose of 10 mg/kg; conditions: for vivo (hypoglycemic effect in db/db mice): db/db mice fasted 4 h, oral administration, plasma glucose 1 and 3 hours after administration, dose 10 mg/kg or less, Dunnett test vs solvent; for vivo (hypoglycemic effect): db/db mice, blood plasma glucose, dose of 10 mg/kg or less
# Procedure, shortened: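 db/db mice aged 9-18 weeks, grouped 5 or 8 per group matched on plasma glucose, fasted 4 h, then dosed orally with compound or 0.5% methylcellulose vehicle. Plasma glucose measured 1 and 3 h post-dose; each timepoint compared against vehicle by Dunnett test.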
# [3] = enzyme inhibitory activity with respect to liver glycogen phosphorylase, class symbols
# [4] = human liver glycogen phosphorylase, class symbol
Compound,"IC50 [1, 3] [nM]",vivo (hypoglycemic effect in db/db mice) [2],"IC50 [1, 4] [nM]",vivo (hypoglycemic effect) [2],vivo (hypoglycemic effect in db/db mice) ([2]; 10 mg/kg)
"O=C(NCc1ccccc1)c1cc(NC(=O)c2cc(F)c(F)cc2Cl)[nH]n1 [Example 3-2, 5-(2-chloro-4,5-difluoro-benzoylamino)-1H-pyrazole-3-carboxylic acid benzylamide]",100 to 300,+,,,
"CN(C(=O)c1cc(NC(=O)c2cc(F)c(F)cc2Cl)[nH]n1)c1ccc(C(=O)O)cc1 [Example 4-2, 5-(2-chloro-4,5-difluoro-benzoylamino)-1H-pyrazole-3-carboxylic acid (4-carboxyphenyl)-methyl-amide]",< 100,++,,,
O=C(NN1CCOCC1)c1cccc(CNC(=O)c2cc(NC(=O)c3cc(F)c(F)cc3Cl)[nH]n2)c1 [Example 5-12],< 100,+,,,
CN(C)C=Nc1ccc(CNC(=O)c2cc(NC(=O)c3cc(F)c(F)cc3Cl)[nH]n2)cc1.Cl [Example 6-23],,,< 100,+,
Cl.Cn1c(CNC(=O)c2cc(NC(=O)c3cc(F)c(F)cc3Cl)[nH]n2)nc2ccccc21 [Example 1-50],< 100,+,,,
Cc1ccnc(CNC(=O)c2cc(NC(=O)c3cc(F)c(F)cc3Cl)[nH]n2)c1 [Example 2-9],< 100,+,,,
Cc1ccccc1CNC(=O)c1cc(NC(=O)c2cc(F)c(F)cc2Cl)[nH]n1 [Example 3-32],< 100,+,,,
CCCN(Cc1ccc(OC)nc1)C(=O)c1cc(NC(=O)c2cc(F)c(F)cc2Cl)[nH]n1 [Example 1-116],< 100,++,,,
COc1ccc(CN(C(=O)c2cc(NC(=O)c3cc(F)c(F)cc3Cl)[nH]n2)C2CC2)cn1 [Example 1-126],< 100,+,,,
O=C(NCc1ncc(F)cc1F)c1cc(NC(=O)c2cc(F)c(F)cc2Cl)[nH]n1 [Example 1-26],< 100,+,,,
O=C(NCc1ccc(-n2cccn2)nc1)c1cc(NC(=O)c2cc(F)c(F)cc2Cl)[nH]n1 [Example 1-137],< 100,+,,,
O=C(NCc1nc2ccccc2[nH]1)c1cc(NC(=O)c2cc(F)c(F)cc2Cl)[nH]n1 [Example 1-42],< 100,+,,,
Cc1ncccc1CNC(=O)c1cc(NC(=O)c2cc(F)c(F)cc2Cl)[nH]n1 [Example 2-28],< 100,+,,,
CCN(C(=O)c1cc(NC(=O)c2cc(F)c(F)cc2Cl)[nH]n1)C1CCCCC1 [Example 1-80],< 100,+,,,
O=C(Nc1cc(C(=O)N(Cc2ccccn2)C2CCCCC2)n[nH]1)c1cc(F)c(F)cc1Cl [Example 1-82],< 100,+,,,
Cc1ccc(CNC(=O)c2cc(NC(=O)c3cc(F)c(F)cc3Cl)[nH]n2)nc1 [Example 2-10],< 100,+,,,
CCCN(C(=O)c1cc(NC(=O)c2cc(F)c(F)cc2Cl)[nH]n1)C1CCCCC1 [Example 1-88],< 100,+,,,
Cl.Nc1cccc(F)c1CNC(=O)c1cc(NC(=O)c2cc(F)c(F)cc2Cl)[nH]n1 [Example 6-39],,,< 100,+,
CN(C(=O)c1cc(NC(=O)c2cc(F)c(F)cc2Cl)[nH]n1)c1ccc(-c2nc(=O)o[nH]2)cc1 [Example 6-12],,,< 100,+,

Compound,"IC50 [1, 3] [nM]",vivo (hypoglycemic effect in db/db mice) [2],"IC50 [1, 4] [nM]",vivo (hypoglycemic effect) [2],vivo (hypoglycemic effect in db/db mice) ([2]; 10 mg/kg)
CCOCCN(C(=O)c1cc(NC(=O)c2cc(F)c(F)cc2Cl)[nH]n1)c1ccccc1 [Example 4-18],< 100,+,,,
COCCN(C(=O)c1cc(NC(=O)c2cc(F)c(F)cc2Cl)[nH]n1)c1ccc(C(=O)O)cc1 [Example 4-48],< 100,++,,,
CCOc1ncccc1CNC(=O)c1cc(NC(=O)c2cc(F)c(F)cc2Cl)[nH]n1 [Example 3-41],< 100,++,,,
CN(C)c1ccc(CNC(=O)c2cc(NC(=O)c3cc(F)c(F)cc3Cl)[nH]n2)cn1 [Example 5-27],< 100,,,,++
CS(=O)(=O)Nc1cccc(CNC(=O)c2cc(NC(=O)c3cc(F)c(F)cc3Cl)[nH]n2)c1 [Example 2-15],< 100,+,,,
O=C(NCc1c(Cl)cccc1Cl)c1cc(NC(=O)c2cc(F)c(F)cc2Cl)[nH]n1 [Example 1-134],< 100,+,,,
Cc1cccc(CNC(=O)c2cc(NC(=O)c3cc(F)c(F)cc3Cl)[nH]n2)n1 [Example 2-11],< 100,+,,,
Cl.O=C(NCc1ccc2c(c1)OCO2)c1cc(NC(=O)c2cc(F)c(F)cc2Cl)[nH]n1 [Example 1-84],< 100,++,,,
CCCCN(C(=O)c1cc(NC(=O)c2cc(F)c(F)cc2Cl)[nH]n1)c1ccc(CC(=O)O)cc1 [Example 4-46],< 100,+,,,
O=C(NCc1c(F)cccc1F)c1cc(NC(=O)c2cc(F)c(F)cc2Cl)[nH]n1 [Example 1-21],< 100,+,,,
N#Cc1cc(CNC(=O)c2cc(NC(=O)c3cc(F)c(F)cc3Cl)[nH]n2)ccn1 [Example 6-48],,,< 100,++,
CN(C)C=Nc1cccc(CNC(=O)c2cc(NC(=O)c3cc(F)c(F)cc3Cl)[nH]n2)c1.Cl [Example 6-22],,,< 100,+,
Cl.O=C(NCc1ccccn1)c1cc(NC(=O)c2cc(F)c(F)cc2Cl)[nH]n1 [Example 3-20],< 100,+,,,
Cc1nc(C)c(CNC(=O)c2cc(NC(=O)c3cc(F)c(F)cc3Cl)[nH]n2)s1.Cl [Example 5-33],< 100,+,,,
COc1ccc(CNC(=O)c2cc(NC(=O)c3cc(F)c(F)cc3Cl)[nH]n2)cn1.CS(=O)(=O)O [Example 5-15],< 100,+,,,
O=C(NCc1ccc(N2CCC(O)CC2)nc1)c1cc(NC(=O)c2cc(F)c(F)cc2Cl)[nH]n1 [Example 1-138],< 100,+,,,
O=C(O)c1cccc(CNC(=O)c2cc(NC(=O)c3cc(F)c(F)cc3Cl)[nH]n2)c1 [Example 3-39],< 100,+,,,
O=C(NCc1csc(-c2cccnc2)n1)c1cc(NC(=O)c2cc(F)c(F)cc2Cl)[nH]n1 [Example 1-41],< 100,+,,,
O=C(NCc1cscn1)c1cc(NC(=O)c2cc(F)c(F)cc2Cl)[nH]n1 [Example 1-38],< 100,+,,,

# — patent US20070032529A1, “Pyrazole compounds and their use as antidiabetes agents” (Japan Tobacco Inc., priority 2005, published 2007)
